Assay results published in patent US6458935B1, “Radiolabeled farnesyl-protein transferase inhibitors” (Merck & Co., Inc., priority 1999, dated 2002).

Test system: FPTase
Experiment: PET Imaging in Dogs: blockade of [11C] radiotracer binding
Format: in vivo
Details: dose of 10 mpk infused over 5 minutes; female beagle dogs; radiotracer [11C] compound of Example 6
Description: Female beagle dogs weighing 7.7-14.6 kg (11.0±2.3 kg) are fasted for at least 12 hours allowing water intake ad libitum, and are premedicated with 0.3-0.4 mL Acepromazine injected i.m. on the day of the experiment. A 20 G two inch venous catheter is placed into the right front leg ulnar vein through which anesthesia is introduced by sodium pentobarbital 25-30 mg/kg in 3-4 ml and maintained with additional pentobarbital at an average dose of 3 mg/kg/hr. Another catheter is inserted into the contralateral ulnar vein for radiotracer administration.
Oxygen saturation of circulating blood is measured with a pulse oximeter (Nellcor Inc., Hayward, Calif.) placed on the tongue of the animal. Circulatory volume is maintained by intravenous infusion of isotonic saline. A 22 G cannula is inserted into the anterior tibial or distal femoral artery for continuous pressure monitoring (Spacelabs™, model 90603A). EKG, heart rate, and core temperature are monitored continuously. In particular, EKG is observed for ST segment changes and arrhythmias. […]
For uninhibited distribution of radiotracer, regions of interest (ROIs) are drawn on the reconstructed image includes the kidney cortex and a region of liver which is removed from the gallbladder images. […] Data are expressed as radioactivity per unit time per unit volume (μCi/cc/mCi injected dose). […]

“(S)-1-(3-Fluoroethoxy-5-bromophenyl)-4-[1-(4-cyanobenzyl) -5-imidazoylmethyl]-5-[(methanesulfonyl)ethyl]-2-piperazinone [Example 2]” was tested, and the “block of PET radiotracer binding (maximum enzyme-specific signal)” value was “completely block radiotracer binding”.
